{
  "source": "patent EP3563875A1",
  "about": "“RADIUM FOR RADIONUCLIDE THERAPY, IN COMBINATION WITH CALCIUM […] TREATMENT” (priority 2018, dated 2019)",
  "key": {"[1]": {"conditions": "cited from earlier work"}, "[2]": {"experiment": "Biodistribution and elimination of 223Ra in mice after i.v. administration", "type": "in vivo, female outbred CD1 mice", "protocol": "(§1) The study was performed in female outbred CD1 mice imported from Charles River breeds. Animals were housed in groups of five and acclimated over five days. After acclimatization, the animals were divided into four groups. The day before the experiment the feed was taken away and at the beginning of the experiment itself the animals were weighed and placed in cages individually on a nonwoven fabric. After administration of ^223Ra (ca 200 kBq/animal in 0.05 ml of physiological saline) through vena caudalis, excrements were collected after one and four hours; after 24 hours, five mice were sacrificed from each group, another five were sacrificed after 96 hours. Blood, heart, lung, liver, pancreas, spleen, kidney, urinary bladder, wall of the colon, colon content, stomach, stomach content, thyroid gland, brain, femur, ovaries, parts of skin and muscles, and excrements from each mouse were removed. The organs and excrements in the measuring vessels were weighed and measured in a well of NaI (T1) scintillation detector.\nTen mice were medicated with CaCl2 in the concentration of 1.11 g/L for one week prior to administration of ^223Ra. The solution was used to feed per os ad libitum throughout the experiment. Table 3. Biodistribution of 223Ra with CaCl2\n15 mice were pre-medicated with vitamin D3, 160 IU/mouse (0.02 mL of triglyceride oil solution of vitamin D3; 0.2 mg/ml) administered per os with part of the feed, three times a week for one week prior to administration of ^223Ra. Five of these mice were eliminated during the experiment because they refused vitamin intake. Table 4. Biodistribution of 223Ra with vitamin D3\nTen mice were medicated with zoledronic acid; 0.1 mL preparation/mouse was taken from the 4 mg/100 mL infusion solution and administered subcutaneously twice a week for one week before administration of ^223Ra. Table 5. Biodistribution of 223Ra with zoledronic acid\nTen mice were used as a control group. Table 6. Biodistribution of 223Ra\n(§2) Experimental layout was analogous to Example 1 or 2. In the mouse model, the animals were pre-medicated by oral administration of L-arginine for one week. L-arginine was added to the mouse food once a day. The day before administration of radium, Ca2^+ was administered orally in the form of a soluble salt. Subsequently, Ra-223 was administered intravenously as a solution of RaCl2 in physiological NaCl saline.\nExperimental layout was analogous to Example 3. In the mouse model, the animals were pre-medicated by subcutaneous injection of calcitonin for one week so that its serum concentration is about 5 nM. Two days before administration of Ra-223, Ca^2+ was administered orally in the form of a soluble salt. Subsequently, Ra-223 was administered intravenously as a solution."}, "[3]": {"conditions": "intravenously or subcutaneously; cited from earlier work"}, "[4]": {"experiment": "Biodistribution and elimination of 223Ra in mice after i.v. administration", "type": "in vivo, female outbred CD1 mice", "conditions": "one week pre-medication, oral soluble Ca2+ salt before Ra-223 i.v.; result in words", "protocol": "as §1, with “detector. […]” for “detector.”\nas §2, with “Subsequently, Ra-223 was administered intravenously as a solution of RaCl2 in physiological NaCl saline.” left out"}},
  "data": [
    {"molecule": "[Cl][223Ra][Cl]", "note": "[223Ra, radium-223 dichloride]", "values": [
      {"measurement": "activity in the blood", "setting": "[1]; 24 hours after injection", "result": "less than one percent"},
      {"measurement": "administered activity remains in the blood", "setting": "[1]; after four hours", "result": "approximately four percent"},
      {"measurement": "volume of distribution", "setting": "[1]; after intravenous injection", "result": "higher than the blood volume"},
      {"measurement": "activity remains in the blood", "setting": "[1]; fifteen minutes after the injection", "result": "about 20%"},
      {"measurement": "activity administered excreted from the body", "setting": "[1]; whole-body measurement seven days after injection, on average", "result": 76, "unit": "%"},
      {"measurement": "uptake in other organs such as the heart, liver, kidney, urinary bladder, and spleen", "setting": "[1]; within four hours after injection", "result": "No significant uptake"},
      {"measurement": "Kidney %ID/g after 24 h", "setting": "[2]; 223Ra ca 200 kBq/animal i.v., kidney, 24 h", "result": 1.76, "unit": "%ID/g"},
      {"measurement": "Kidney %ID/g after 96 h", "setting": "[2]; 223Ra ca 200 kBq/animal i.v., kidney, 96 h", "result": 0.32, "unit": "%ID/g"},
      {"measurement": "Large intestine content %ID/g after 24 h", "setting": "[2]; 223Ra ca 200 kBq/animal i.v., large intestine content, 24 h", "result": 2.14, "unit": "%ID/g"},
      {"measurement": "Large intestine content %ID/g after 96 h", "setting": "[2]; 223Ra ca 200 kBq/animal i.v., large intestine content, 96 h", "result": 0.27, "unit": "%ID/g"},
      {"measurement": "Left femur %ID/g after 24 h", "setting": "[2]; 223Ra ca 200 kBq/animal i.v., left femur, 24 h", "result": 13.37, "unit": "%ID/g"},
      {"measurement": "Left femur %ID/g after 96 h", "setting": "[2]; 223Ra ca 200 kBq/animal i.v., left femur, 96 h", "result": 10.33, "unit": "%ID/g"},
      {"measurement": "Liver %ID/g after 24 h", "setting": "[2]; 223Ra ca 200 kBq/animal i.v., liver, 24 h", "result": 0.17, "unit": "%ID/g"},
      {"measurement": "Liver %ID/g after 96 h", "setting": "[2]; 223Ra ca 200 kBq/animal i.v., liver, 96 h", "result": 0.10, "unit": "%ID/g"},
      {"measurement": "Spleen %ID/g after 24 h", "setting": "[2]; 223Ra ca 200 kBq/animal i.v., spleen, 24 h", "result": 8.59, "unit": "%ID/g"},
      {"measurement": "Spleen %ID/g after 96 h", "setting": "[2]; 223Ra ca 200 kBq/animal i.v., spleen, 96 h", "result": 6.77, "unit": "%ID/g"},
      {"measurement": "Thyroid %ID/g after 24 h", "setting": "[2]; 223Ra ca 200 kBq/animal i.v., thyroid, 24 h", "result": 0.39, "unit": "%ID/g"},
      {"measurement": "Thyroid %ID/g after 96 h", "setting": "[2]; 223Ra ca 200 kBq/animal i.v., thyroid, 96 h", "result": 0.07, "unit": "%ID/g"},
      {"measurement": "In total after 24 h eliminated in excrements", "setting": "[2]; 223Ra in excrements, 24 h", "result": "33.54 ± 16.22", "unit": "% ID"},
      {"measurement": "In total after 96 h eliminated in excrements", "setting": "[2]; 223Ra in excrements, 96 h", "result": "36.43 ± 12.31", "unit": "% ID"},
      {"measurement": "In total after 24 h eliminated in urine", "setting": "[2]; 223Ra in urine, 24 h", "result": "16.24 ± 2.29", "unit": "% ID"},
      {"measurement": "In total after 96 h eliminated in urine", "setting": "[2]; 223Ra in urine, 96 h", "result": "17.73 ± 2.34", "unit": "% ID"}
    ]},
    {"molecule": "N=C(N)NCCC[C@H](N)C(=O)O", "note": "[L-arginine]", "values": [
      {"measurement": "Ra uptake in the organism", "setting": "[2]; one week pre-medication, oral soluble Ca2+ salt before Ra-223 i.v., result in words", "result": "Ra uptake and resorption increased in the organism"}
    ]},
    {"molecule": "O=P(O)(O)C(O)(Cn1ccnc1)P(=O)(O)O", "note": "[zoledronic acid]", "values": [
      {"measurement": "NOAEL", "setting": "[3]", "result": 0.02, "unit": "mg/kg/day"}
    ]},
    {"molecule": "calcitonin", "values": [
      {"measurement": "Ra uptake in the organism", "setting": "[4]", "result": "Ra-223 uptake increased in the organism"}
    ]}
  ]
}
